# Measured values taken from patent US6669951B2, “Compositions and methods for enhancing drug delivery across and into epithelial tissues” (CellGate, Inc., priority 1999, dated 2003).
# Peptide text beside a SMILES is read from it. * marks the point of attachment. FITC = O=C1OC2(c3ccc(O)cc3Oc3cc(O)ccc32)c2ccc(NC(=S)*)cc21; Ahx = NCCCCCC(=O)O
# Columns and labels:
# Jurkat cells [1] = assay: Cellular uptake kinetics assay (Michaelis-Menton); assay type: cell-based, human; set-up: Vmax: unit not given here; conditions: for Km / Vmax / rate of entering cells, fold faster than Tat47-59: Jurkat cells; for Km / Vmax: incubation 30, 60, 120, 240 seconds, 3° C.; for rate of entering cells, fold faster than Tat47-59: from Km values
# Experimental: (§1) The accuracy of this method for determining concentration was established by weighing selected samples and dissolving them in a known amount of PBS buffer. The concentrations determined by UV spectroscopy correlated with the amounts weighed out manually. Jurkat cells (human T cell line), murine B cells (CH27), or human PBL cells were grown in 10% fetal calf serum and DMEM and each of these were used for cellular uptake experiments. […] The microtiter plates were centrifuged and the cells were isolated, washed with cold PBS (3×250 μL), incubated with 0.05% trypsin/0.53 mM EDTA at 37° C. for 5 min, washed with cold PBS, and resuspended in PBS containing 0.1% propidium iodide. The cells were analyzed using fluorescent flow cytometry (FACScan, Becton Dickinson) and cells staining with propidium iodide were excluded from the analysis. The data presented is the mean fluorescent signal for the 5000 cells collected.
# Cellular Uptake Kinetics Assay. The assays were performed as previously described except the cells were incubated for 0.5, 1, 2, and 4 min at 4° C. in triplicate in 2% FCS/PBS (50 μl) in microtiter plates (96 well). The reactions were quenched by diluting the samples into 2% FCS/PBS (5 mL). The assays were then worked up and analyzed by fluorescent flow cytometry as previously described.
# The rates of cellular uptake were determined after incubation (3° C.) of the peptides in Jurkat cells for 30, 60, 120, and 240 seconds (Table 1).
# Jurkat cells [2] = assay: FACS cellular uptake assay; assay type: cell-based, human; conditions: for cellular uptake relative to Tat49-57: Jurkat cells, 2% FCS; for additional loss of intracellular fluorescence from the one amino acid truncated analogs: further deletion of one residue
# Experimental: as §1
# Inhibition of Cellular Uptake with Sodium Azide. The assays were performed as previously described with the exception that the cells used were preincubated for 30 min with 0.5% sodium azide in 2% FCS/PBS buffer prior to the addition of fluorescent peptides and the cells were washed with 0.5% sodium azide in PBS buffer. All of the cellular uptake assays were run in parallel in the presence and absence of sodium azide.
# To determine the structural requirements for the cellular uptake of short arginine-rich peptides, a series of fluorescently-labeled truncated analogues of Tat49-57 were synthesized using standard solid-phase chemistry. See, e.g., Atherton, E. et al. SOLID-PHASE PEPTIDE […] (IRL: Oxford, Engl. 1989). A fluorescein moiety was attached via an aminohexanoic acid spacer on the amino termini. The ability of these fluorescently labeled peptides to enter Jurkat cells was then analyzed using fluorescent activated cell sorting (FACS). The peptide constructs tested were Tat49-57 (Fl-ahx-[…]; SEQ ID NO:8): Tat49-56 (Fl-ahx-[…]; SEQ ID NO:9), Tat49-55 (Fl-ahx-RKKRRQR; SEQ ID NO: 10), Tat50-57 (Fl-ahx-[…]; SEQ ID NO: 11), and Tat51-57 (Fl-ahx-KRRQRRR; SEQ ID NO: 12). Differentiation between cell surface binding and internalization was accomplished throughout by running a parallel set of assays in the presence and absence of sodium azide. Because sodium azide inhibits energy-dependent cellular uptake but not cell surface binding, the difference in fluorescence between the two assays provided the amount of fluorescence resulting from internalization.
# skin of nude mice = assay: Penetration of biotinylated conjugates into skin of nude mice (streptavidin staining); conditions: 1 mM-100 μM in PBS, nude mice, thirty, sixty, 120 minutes
# Experimental: Samples (100 μl) were applied as a liquid without excipient, prevented from dispersing by a Vaseline™ barrier, and allowed to penetrate for fifteen minutes. At the end of this period the animal was sacrificed, the relevant sections of skin were excised, embedded in mounting medium (OCT), and frozen. Frozen sections (5 microns) were cut using a cryostat, collected on slides, and stained with fluorescently labeled streptavidin (Vector Laboratories, Burlingame, Calif.). The slides were fixed in acetone at 4° C. for ten minutes, air dried, soaked in PBS for five minutes, blocked with normal goat serum for five minutes, and washed with PBS for five minutes. The section was stained by incubation with fluorescently labeled streptavidin at 30 μg/ml for thirty minutes, washed with PBS, counterstained with propidium iodide (1 μg/ml) for two minutes, and the section was mounted with Vectashield™ mounting media. Slides were analyzed by fluorescent microscopy. Parallel studies were done using streptavidin-horse radish peroxidase rather than fluorescein-streptavidin. The biotinylated peptide was visualized by treatment of the sections with the horseradish peroxidase substrate diaminobenzadine, and visualization with light microscopy.
# Alternatively, sample (100 μl) was applied as a liquid without excipient and prevented from evaporating by wrapping plastic wrap over the sample sealed with Vaseline™. […] At the end of this period animal was sacrificed, the relevant section of skin was excised, embedded in mounting medium (OCT) and frozen. […] Slides were analyzed by fluorescent microscopy.
# At the end of this period animal was sacrificed, the relevant section of skin was excised, embedded in mounting medium (OCT) and frozen. […] Slides were analyzed by fluorescent microscopy
# (§2) At the end of this period animal was sacrificed, the relevant section of skin was excised, embedded in mounting medium (OCT) and frozen. […] Slides were analyzed by fluorescent microscopy.
# as §2
# [3] = system: ear inflammation in Balb/c mice; assay: Murine contact dermatitis (DNFB), ear inflammation; assay type: in vivo, mouse
# Experimental: Balb/c (6-7 weeks) mice were painted on the abdomen with 100 μl of 0.7% DNFB in acetone olive oil (95:5). Three days later both ears of the animals were restimulated with 0.5% DNFB in acetone. […] Ear inflammation was measured 24 hours after restimulation using a spring loaded caliper. The percent reduction of inflammation was calculated using the following formula […], where t=thickness of the treated ear, n=the thickness of a normal untreated ear, and u=thickness of an inflamed ear without any treatment. N=20 animals in each group.
compound,measurement,setting,value
"N=C(N)NCCC[C@H](NC(=O)[C@H](CCCNC(=N)N)NC(=O)[C@H](CCCNC(=N)N)NC(=O)[C@H](CCCNC(=N)N)NC(=O)[C@H](CCCNC(=N)N)NC(=O)[C@H](CCCNC(=N)N)NC(=O)[C@H](CCCNC(=N)N)NC(=O)[C@H](CCCNC(=N)N)NC(=O)[C@H](CCCNC(=N)N)NC(=O)CCCCCNC(=S)Nc1ccc2c(c1)C(=O)OC21c2ccc(O)cc2Oc2cc(O)ccc21)C(N)=O (single isomer, unassigned) [R9]",Km values fold greater / fold better than Tat49-57,Jurkat cells [1]; Discussion,30 fold
same,Km,Jurkat cells [1],44 µM
same,Vmax,Jurkat cells [1],0.37
same,"rate of entering cells, fold faster than Tat47-59",Jurkat cells [1],~20 fold
C[C@H](NC(=O)[C@H](CCCNC(=N)N)NC(=O)[C@H](CCCNC(=N)N)NC(=O)[C@H](CCCCN)NC(=O)[C@H](CCCCN)NC(=O)[C@H](CCCNC(=N)N)NC(=O)CCCCCNC(=S)Nc1ccc2c(c1)C(=O)OC21c2ccc(O)cc2Oc2cc(O)ccc21)C(=O)N[C@@H](CCCNC(=N)N)C(=O)N[C@@H](CCCNC(=N)N)C(=O)N[C@@H](CCCNC(=N)N)C(N)=O [A-54] ({FITC-Ahx}-RKKRRARRR-NH2),cellular uptake relative to Tat49-57,Jurkat cells [2],modest decrease in cellular internalization
"CC[C@H](C)[C@H](NC(=O)[C@H](CCCCN)NC(=O)[C@@H](NC(=O)[C@H](CCC(N)=O)NC(=O)[C@H](CCCNC(=N)N)NC(=O)CCCCCNC(=S)Nc1ccc2c(c1)C(=O)OC21c2ccc(O)cc2Oc2cc(O)ccc21)[C@@H](C)CC)C(=O)N[C@@H](Cc1c[nH]c2ccccc12)C(=O)N[C@@H](Cc1ccccc1)C(=O)N[C@@H](CCC(N)=O)C(=O)N[C@@H](CC(N)=O)C(=O)N[C@@H](CCCNC(=N)N)C(=O)N[C@@H](CCCNC(=N)N)C(=O)N[C@@H](CCSC)C(=O)N[C@@H](CCCCN)C(=O)N[C@@H](Cc1c[nH]c2ccccc12)C(=O)N[C@@H](CCCCN)C(=O)N[C@@H](CCCCN)C(N)=O [Antennapedia43-58, reference compound]",Km,Jurkat cells [1],427 µM
same,Vmax,Jurkat cells [1],0.41
same,"rate of entering cells, fold faster than Tat47-59",Jurkat cells [1],approximately 2 fold
CC(=O)O[C@H]1C(=O)[C@@]2(C)[C@H]([C@H](OC(=O)c3ccccc3)[C@]3(O)C[C@H](OC(=O)[C@H](OC(=O)NCCCC[C@H](NC(=O)[C@@H](CCCNC(=N)N)NC(=O)[C@@H](CCCNC(=N)N)NC(=O)[C@@H](CCCNC(=N)N)NC(=O)[C@@H](CCCNC(=N)N)NC(=O)[C@@H](CCCNC(=N)N)NC(=O)CCCCCNC(=O)CCCC[C@@H]4SC[C@@H]5NC(=O)N[C@@H]54)C(N)=O)[C@@H](NC(=O)c4ccccc4)c4ccccc4)C(C)=C1C3(C)C)[C@]1(OC(C)=O)CO[C@@H]1C[C@@H]2O [B-aca-r5-K-taxol],penetration of drug conjugates into skin,skin of nude mice,very little uptake was seen
"N=C(N)NCCC[C@H](NC(=O)[C@H](CCC(N)=O)NC(=O)[C@H](CCCNC(=N)N)NC(=O)[C@H](CCCNC(=N)N)NC(=O)[C@H](CCCCN)NC(=O)[C@H](CCCCN)NC(=O)[C@H](CCCNC(=N)N)NC(=O)CCCCCNC(=S)Nc1ccc2c(c1)C(=O)OC21c2ccc(O)cc2Oc2cc(O)ccc21)C(N)=O [Tat49-55, Fl-ahx-RKKRRQR] ({FITC-Ahx}-RKKRRQR-NH2)",additional loss of intracellular fluorescence from the one amino acid truncated analogs,Jurkat cells [2],60%
"N=C(N)NCCC[C@H](NC(=O)[C@H](CCCNC(=N)N)NC(=O)[C@H](CCCNC(=N)N)NC(=O)[C@H](CCC(N)=O)NC(=O)[C@H](CCCNC(=N)N)NC(=O)[C@H](CCCNC(=N)N)NC(=O)[C@H](CCCCN)NC(=O)[C@H](CCCCN)NC(=O)[C@H](CCCNC(=N)N)NC(=O)CCCCCNC(=S)Nc1ccc2c(c1)C(=O)OC21c2ccc(O)cc2Oc2cc(O)ccc21)C(N)=O [Tat49-57, reference compound]",cellular uptake relative to Tat49-57,Jurkat cells [2],between that of R6 and R7
same,Km,Jurkat cells [1],770 µM
same,Vmax,Jurkat cells [1],0.38
"N=C(N)NCCC[C@H](NC(=O)[C@H](CCCNC(=N)N)NC(=O)[C@H](CCCNC(=N)N)NC(=O)[C@H](CCC(N)=O)NC(=O)[C@H](CCCNC(=N)N)NC(=O)[C@H](CCCNC(=N)N)NC(=O)[C@H](CCCCN)NC(=O)CCCCCNC(=S)Nc1ccc2c(c1)C(=O)OC21c2ccc(O)cc2Oc2cc(O)ccc21)C(N)=O [Tat51-57, Fl-ahx-KRRQRRR] ({FITC-Ahx}-KRRQRRR-NH2)",additional loss of intracellular fluorescence from the one amino acid truncated analogs,Jurkat cells [2],did not further diminish the amount of internalization
N=C(N)NCCC[C@H](NC(=O)[C@H](CCCCN)NC(=O)[C@H](CCCCN)NC(=O)[C@H](CCCNC(=N)N)NC(=O)[C@H](CCCNC(=N)N)NC(=O)[C@H](CCC(N)=O)NC(=O)[C@H](CCCNC(=N)N)NC(=O)[C@H](CCCNC(=N)N)NC(=O)[C@H](CCCNC(=N)N)NC(=O)CCCCCNC(=S)Nc1ccc2c(c1)C(=O)OC21c2ccc(O)cc2Oc2cc(O)ccc21)C(N)=O [Tat57-49],cellular uptake relative to Tat49-57,Jurkat cells [2],more effective at entering Jurkat cells then Tat49-57
"N=C(N)NCCC[C@@H](NC(=O)[C@@H](CCCNC(=N)N)NC(=O)[C@@H](CCCNC(=N)N)NC(=O)[C@@H](CCC(N)=O)NC(=O)[C@@H](CCCNC(=N)N)NC(=O)[C@@H](CCCNC(=N)N)NC(=O)[C@@H](CCCCN)NC(=O)[C@@H](CCCCN)NC(=O)[C@@H](CCCNC(=N)N)NC(=O)CCCCCNC(=S)Nc1ccc2c(c1)C(=O)OC21c2ccc(O)cc2Oc2cc(O)ccc21)C(N)=O [d-Tat49-57, F1-ahx-rkkrrqrrr]",cellular uptake relative to Tat49-57,Jurkat cells [2],more effective at entering Jurkat cells then Tat49-57
"N=C(N)NCCC[C@@H](NC(=O)[C@@H](CCCCN)NC(=O)[C@@H](CCCCN)NC(=O)[C@@H](CCCNC(=N)N)NC(=O)[C@@H](CCCNC(=N)N)NC(=O)[C@@H](CCC(N)=O)NC(=O)[C@@H](CCCNC(=N)N)NC(=O)[C@@H](CCCNC(=N)N)NC(=O)[C@@H](CCCNC(=N)N)NC(=O)CCCCCNC(=S)Nc1ccc2c(c1)C(=O)OC21c2ccc(O)cc2Oc2cc(O)ccc21)C(N)=O [d-Tat57-49, F1-ahx-rrrqrrkkr]",cellular uptake relative to Tat49-57,Jurkat cells [2],more effective at entering Jurkat cells then Tat49-57
"CC1(C)O[C@@H]2C[C@H]3[C@@H]4CCC5=CC(=O)C=C[C@]5(C)[C@@]4(F)[C@@H](O)C[C@]3(C)[C@]2(C(=O)CO)O1 [triamcinolone acetonide, reference compound]",reduction in ear inflammation,[3]; 0.1% topical,34.1%±6.3
R7 (SEQ ID NO:3): heptamer that consists of L-arginine residues; SEQ ID NO:3 (RRRRRRR),reduction in ear inflammation,"[3]; 1% topical, 1, 5 and 20 h after restimulation, measured 24 hours",No reduction of inflammation was observed
